In this experiment the target is T1, gastrin (CCK2) receptors (Rattus norvegicus, UniProt P30553).
T1 construct: The stomach was excised and flushed with ca. 1 ml of unbuffered physiological saline solution; from tissue; host or cells: isolated whole stomach of immature rats (ca. 21 days old)
T1 sequence (P30553 1-452): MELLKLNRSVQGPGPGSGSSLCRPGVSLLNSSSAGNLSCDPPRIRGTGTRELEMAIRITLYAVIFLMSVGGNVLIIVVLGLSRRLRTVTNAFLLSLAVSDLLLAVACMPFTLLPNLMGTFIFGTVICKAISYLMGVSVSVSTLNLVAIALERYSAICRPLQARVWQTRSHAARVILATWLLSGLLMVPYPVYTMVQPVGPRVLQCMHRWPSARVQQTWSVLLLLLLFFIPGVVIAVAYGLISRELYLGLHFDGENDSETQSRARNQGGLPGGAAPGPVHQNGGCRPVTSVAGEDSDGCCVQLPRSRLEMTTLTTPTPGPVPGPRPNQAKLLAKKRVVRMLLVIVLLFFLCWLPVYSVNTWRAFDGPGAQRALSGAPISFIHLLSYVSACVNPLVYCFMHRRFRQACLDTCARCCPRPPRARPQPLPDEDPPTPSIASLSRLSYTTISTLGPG
The experiment can be described thus: gastrin (CCK2) antagonist activity in an immature rat stomach assay. To be noted: pentagastrin dose-response curves, acid secretion, read-out: pKB rat stomach (converted). In short, it runs like this: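 Pentagastrin dose-response curves were run cumulatively 60 min after drug went into the serosal bath, itself after 120 min stabilisation. Preparation: perfused stomach from rats ca. 21 days old (33-50 g), with unbuffered saline under 100% O2 at 1 ml min^−1 and perfusate pH monitored.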

With `CC1CCC(C2=NN(CC(=O)Nc3cccc(CC(=O)O)c3)C(=O)N(CC(=O)C(C)(C)C)c3ccccc32)CC1` (centres unmarked) [Example 103, (3-{2-[1-(3,3-Dimethyl-2-oxo-butyl)-5-(4-methyl-cyclohexyl)-2-oxo-1,2-dihydro-3H-1,3,4-benzotriazepin-3-yl]-acetylamino}-phenyl)-acetic acid], the Kb is 3.98 nM. Then `CNc1cc(NC)cc(NC(=O)CN2N=C(C3CCCCC3)c3ccccc3N(CC(=O)C(C)(C)C)C2=O)c1` [Example 104, N-(3,5-Bis-methylamino-phenyl)-2-[5-cyclohexyl-1-(3,3-dimethyl-2-oxo-butyl)-2-oxo-1,2-dihydro-3H-1,3,4-benzotriazepin-3-yl]-acetamide], with 44.7 nM; and `CNc1cc(NC(=O)CN2N=C(C3CCCCC3)c3ccccc3N(CC(=O)C(C)(C)C)C2=O)ccc1OC` [Example 105, 2-[5-Cyclohexyl-1-(3,3-dimethyl-2-oxo-butyl)-2-oxo-1,2-dihydro-3H-1,3,4-benzotriazepin-3-yl]-N-(4-methoxy-3-methylamino-phenyl)-acetamide], with 27.5 nM; and `CC(C)(C)C(=O)CN1C(=O)N(CC(=O)Nc2cccc(CO)n2)N=C(C2CCCCC2)c2ccccc21` [Example 106, 2-[5-Cyclohexyl-1-(3,3-dimethyl-2-oxo-butyl)-2-oxo-1,2-dihydro-3H-1,3,4-benzotriazepin-3-yl]-N-(6-hydroxymethyl-pyridin-2-yl)-acetamide], with 129 nM. In the case of `Cc1nc(-c2cccc(NC(=O)CN3N=C(C4CCCCC4)c4ccccc4N(CC(=O)C(C)(C)C)C3=O)c2)cs1` [Example 107], the Kb was 3.31 nM. Next, `CC(C)(C)C(=O)CN1C(=O)N(CC(=O)Nc2cccc(-c3csc(C(=O)O)n3)c2)N=C(C2CCCCC2)c2ccccc21` [Example 108, 4-(3-{2-[5-Cyclohexyl-1-(3,3-dimethyl-2-oxo-butyl)-2-oxo-1,2-dihydro-3H-1,3,4-benzotriazepin-3-yl]-acetylamino}-phenyl)-thiazole-2-carboxylic acid]: 37.2 nM; `CC(C)(CO)C(=O)CN1C(=O)N(CC(=O)Nc2cccc(CC(=O)O)c2)N=C(C2CCCCC2)c2ccccc21` [Example 110, (3-{2-[5-Cyclohexyl-1-(4-hydroxy-3,3-dimethyl-2-oxo-butyl)-2-oxo-1,2-dihydro-3H-1,3,4-benzotriazepin-3-yl]-acetylamino}-phenyl)-acetic acid]: 93.3 nM. Consider `O=C(CN1N=C(C2CCCCC2)c2ccccc2N(CC(=O)C2CCCCC2)C1=O)Nc1cccc(-c2nc(=O)o[nH]2)c1` [Example 111, 2-[5-Cyclohexyl-1-(2-cyclohexyl-2-oxo-ethyl)-2-oxo-1,2-dihydro-3H-1,3,4-benzotriazepin-3-yl]-N-[3-(5-oxo-2,5-dihydro-[1,2,4]oxadiazol-3-yl)-phenyl]-acetamide], for which the Kb was 2.19 nM. Take `Cc1ccc2c(c1)N(CC(=O)C(C)(C)C)C(=O)N(CC(=O)Nc1cccc(C(=O)O)c1)N=C2C1CCCCC1` [Example 112, 3-{2-[5-Cyclohexyl-1-(3,3-dimethyl-2-oxo-butyl)-8-methyl-2-oxo-1,2-dihydro-3H-1,3,4-benzotriazepin-3-yl]-acetylamino}-benzoic acid]: the Kb was 40.7 nM. Consider `CC(C)(C)C(=O)CN1C(=O)N(CC(=O)Nc2cccc(C(=O)O)c2)N=C(C2CCCCC2)c2c(F)cccc21` [Example 113, 3-{2-[5-Cyclohexyl-1-(3,3-dimethyl-2-oxo-butyl)-6-fluoro-2-oxo-1,2-dihydro-3H-1,3,4-benzotriazepin-3-yl]-acetylamino}-benzoic acid], for which the Kb is 6.03 nM. Then `Cc1cccc2c1C(C1CCCCC1)=NN(CC(=O)Nc1cccc(C(=O)O)c1)C(=O)N2CC(=O)C(C)(C)C` [Example 114, 3-{2-[5-Cyclohexyl-1-(3,3-dimethyl-2-oxo-butyl)-6-methyl-2-oxo-1,2-dihydro-3H-1,3,4-benzotriazepin-3-yl]-acetylamino}-benzoic acid], with 35.5 nM.

Values taken from patent publication US20050026911A1, “Benzotriazapinone salts and methods for using same” (priority 2003, published 2005).
